# Literature values as cited in paper PMC12281572.
# Values joined by “and” are separate entries in the source; they are usually repeats but may differ in a detail not shown here. Equal values may be shown once.
# Experiment: FTIR, 4-fluorophenol as donor (the pK_BHX database, per the paper)
# Settings: CCl4; 25 C
row,SMILES,"pK_BHX (log10 Kf of the 1:1 H-bond complex with 4-fluorophenol, by FTIR)"
1,O=[N+]([O-])c1cc[n+]([O-])cc1,1.05 log units
2,C(=Nc1ccccc1)Nc1ccccc1,2.13 log units
3,Cc1ccc(C(=O)N(C)C)cc1,2.27 log units
4,C=CCSC,0.08 log units
5,CCc1ccncc1,2.07 log units
6,O=[N+]([O-])C=CN1CCCCC1,1.55 log units
7,c1cnccn1,0.92 log units
8,c1cc(N2CCCCC2)ccn1,2.68 log units
9,COc1ccc(C#N)cc1,0.97 log units
10,CC(=O)c1ccc(C)cc1,1.24 log units
11,COc1ccc(C(=O)c2ccccc2)cc1,1.27 log units
12,Brc1ccccn1,1.03 log units
13,CN(C)C,2.13 log units
14,Cn1ccccc1=O,2.5 log units
15,CN=Cc1ccccc1,1.49 log units
16,C1CCNC1,2.59 log units
17,Cc1ccnc(C)c1,2.21 log units
18,CN(C(=Nc1ccc(Br)cc1)c1ccccc1)c1ccccc1,1.11 log units
19,CC(C)(C)OC(=O)c1ccccc1,0.97 log units
20,CN(C)S(C)(=O)=O,1.0 log units

row,SMILES,"pK_BHX (log10 Kf of the 1:1 H-bond complex with 4-fluorophenol, by FTIR)"
1,CN(C)C=NCc1cc(Cl)cc(Cl)c1,2.0 log units
2,N#Cc1ccc(Br)cc1,0.73 log units
3,CCOC(C)(C)C,1.08 log units
4,c1ccc(N2CCCCC2)cc1,0.68 log units
5,CN(C)C=NC(=O)c1ccccc1,2.1 log units
6,C1CSC1,0.13 log units
7,Fc1cccnc1,1.35 log units
8,N#Cc1ccc(F)cc1,0.72 log units
9,c1ccc2oncc2c1,0.68 log units
10,c1ccc(C2CC2)cc1,-0.37 log units
11,C#Cc1ccccc1,-0.44 log units and -0.6 log units
12,Fc1nc(F)c(F)c(F)c1F,-0.49 log units
13,COc1ccc(C)cc1,0.08 log units
14,COc1ccccc1C(C)=O,1.34 log units
15,COc1ccccc1C#N,1.06 log units
16,c1ccccc1,-0.49 log units
17,CN(C)c1ccc(C=O)cc1,1.53 log units
18,O=C(C(=O)c1ccccc1)c1ccccc1,0.44 log units
19,COC(=O)N(C)C,1.8 log units
20,CN(C)C(=O)CCl,1.74 log units
